# In US20170285044A1, “METHODS FOR PREDICTING AND IMPROVING THE SURVIVAL OF GASTRIC CANCER PATIENTS” (Pierian Holdings, Inc., priority 2011, published 2017):
# Key:
# [1] = system: unselected gastric cancer patients; conditions: monotherapy; Jhawer et al., 2008; cited from earlier work
# NCI-87 cells = type: cell-based, human; conditions: without altering total HER2 levels, FIG. 12
# Protocol: (§1) Multiple Drug Effect Analysis: ˜1 X10^4 cells were plated in 24-well plate and grown in appropriate growth media. Lapatinib, cMET inhibitor or both agents (combo) were added at 1 μM concentration for 4 hrs and lysed for subsequent pathway profiling.
# (§2) Immuno-microarray slides were rinsed 2× with TB ST (50 mM Tris/150 mM NaCl/0.1% Tween-20, pH 7.2-7.4), blocked with 80 μL Whatman Blocking Buffer lhr at RT, then washed 2× with TBST. Serially diluted lysate controls in 80 μL dilution buffer (2% BSA/0.1% TritonX-100/TBS, pH 7.2-7.4) and samples were added to designated sub-arrays on slides, then incubated 1 hour at RT. Slides were washed 4× (3 min. each), and detector Abs were added in 80 μL of reaction buffer and incubated for 2 hours at RT. After washing slides with TB ST to remove unbound detector Abs, 80 μL of biotin-tyramide solution (5 μg/m1 in 50 mM glucose/PBS) prepared from 400 μg/mL in ethanol solution (Perkin-Elmer Life Science) was added and incubated 15 min in darkness. Glucose-oxidase (GO)/HRP-mediated tyramide signal amplification process was terminated by washing with TBST 4×, 3 min each. Local deposition of biotin-tyramide was detected by incubation with streptavidin (SA)-Alexa647 (Invitrogen) at 0.5 μg/mL in 2% BSA/0.1% Triton/TBS for 40 min. Upon completion of incubation, slides were washed 4× with TBST, dried and kept in darkness until imaged via microarray scanner. […]
# [2] = system: MET-amplified SNU484 cells; type: cell-based, human; conditions: FIG. 12
# Protocol: as §1, §2
SMILES,objective response [1],HER2 activation (NCI-87 cells),HER2 activation [2]
COc1cc2c(Oc3ccc(NC(=O)C4(C(=O)Nc5ccc(F)cc5)CC4)cc3F)ccnc2cc1OCCCN1CCOCC1 [foretinib],failed to demonstrate an objective response,,
CS(=O)(=O)CCNCc1ccc(-c2ccc3ncnc(Nc4ccc(OCc5cccc(F)c5)c(Cl)c4)c3c2)o1 [lapatinib],,abolished,unable to do so
